Series [1] deals with T1, Dermcidin (Homo sapiens) (UniProt P81605).
T1 sequence (whole entry): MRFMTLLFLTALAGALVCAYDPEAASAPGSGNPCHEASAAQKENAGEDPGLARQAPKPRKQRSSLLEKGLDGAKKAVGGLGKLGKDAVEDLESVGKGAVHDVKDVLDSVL
Briefly: Binding affinity to dermcidin in human HCT116 cells at 50 uM incubated for 8 hrs by anti-IAF mAb based immunoprecipitation assay. It is filed as cell-based.

The species entered for series [2] is Homo sapiens. The experiment in a line: Binding affinity to HSP70 in human HCT116 cells at 50 uM incubated for 8 hrs by LC-MS/MS analysis. It is filed as cell-based.
Series [3] deals with Glyceraldehyde-3-phosphate dehydrogenase (Homo sapiens) (UniProt P04406). The experiment in a line: Covalent binding affinity to GADPH in human HCT116 cell lysates at 30 uM incubated for 8 hrs by Western blot analysis. It is filed as subcellular. The conditions noted are these: Lysate. (In general: In western blotting, separated proteins are transferred to a membrane and probed.)
Sequence of Glyceraldehyde-3-phosphate dehydrogenase (Homo sapiens) (P04406 2-335 limits assumed): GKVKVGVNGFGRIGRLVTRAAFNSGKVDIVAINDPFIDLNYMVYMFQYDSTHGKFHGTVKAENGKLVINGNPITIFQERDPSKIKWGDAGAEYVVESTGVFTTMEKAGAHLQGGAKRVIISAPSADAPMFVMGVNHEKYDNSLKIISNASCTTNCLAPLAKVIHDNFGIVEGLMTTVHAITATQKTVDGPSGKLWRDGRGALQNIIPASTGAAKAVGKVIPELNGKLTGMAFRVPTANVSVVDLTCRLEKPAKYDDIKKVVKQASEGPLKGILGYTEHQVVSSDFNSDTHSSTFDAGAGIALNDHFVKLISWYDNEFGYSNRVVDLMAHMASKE

Series [4] is described as follows: Drug accumulation in human MALME-3M cells assessed as sub-cellular localization in endoplasmic reticulum measured up to 9 hrs by ER-tracker-blue based confocal microscopy. It is filed as ADME, subcellular.
Series [5] is described as follows: Drug accumulation in human HCT116 cells assessed as sub-cellular localization in endoplasmic reticulum measured up to 9 hrs by ER-tracker-blue based confocal microscopy. It is filed as ADME, subcellular. As to conditions: hct-116, 9 h.
The species entered for series [6] is Homo sapiens. Briefly: Binding affinity to actin in human HCT116 cells at 50 uM incubated for 8 hrs by LC-MS/MS analysis. It is filed as cell-based.
Series [7] addresses T1, Dermcidin (Homo sapiens). The experiment in a line: Binding affinity to dermcidin in human HCT116 cell lysates at 3 to 30 uM incubated for 8 hrs by anti-IAF mAb based immunoprecipitation assay. It is filed as subcellular. The conditions noted are these: Lysate.
A short description of series [8]: Drug accumulation in human HCT116 cells assessed as sub-cellular localization in autophagosomes measured after 6 hrs by dansyl-cadaverine based confocal microscopy. It is filed as ADME, subcellular, Autophagosome. The conditions noted are these: hct-116, 6 h.
Series [9] deals with T1, Dermcidin (Homo sapiens). The experiment in a line: Binding affinity to dermcidin in human HCT116 cells at 50 uM incubated for 8 hrs by LC-MS/MS analysis. It is filed as cell-based.
The nature of series [10]: Drug accumulation in human MALME-3M cells assessed as sub-cellular localization in autophagosomes measured after 6 hrs by dansyl-cadaverine based confocal microscopy. It is filed as ADME, subcellular, Autophagosome.
The target of series [11] is Glyceraldehyde-3-phosphate dehydrogenase (Homo sapiens) (UniProt P04406). Briefly: Binding affinity to GADPH in human HCT116 cells at 50 uM incubated for 8 hrs by LC-MS/MS analysis. It is filed as cell-based.
Series [12] concerns the target T1, Dermcidin (Homo sapiens). The experiment in a line: Covalent binding affinity to dermcidin in human HCT116 cell lysates at 30 uM incubated for 8 hrs by Western blot analysis. It is filed as subcellular. The conditions noted are these: Lysate.

Activity calls are given as the source filed them. The calls are words filed in the database; no cut-off is given here.

For the compound `CN(C)c1ccc2c(CC(=O)NCCCCCCNC(=O)CCc3ccc4c(=O)c5c(sc6c(=O)c7ccccc7c(=O)c65)c(=O)c4c3)cc(=O)oc2c1`, the result in series [1], in series [2], in series [3], in series [6], in [7] and in [9] was Active. In addition, the outcome in series [11] and in series [12] was Active. Besides, the Drug uptake result in series [4], in series [5], in [8] and in series [10] was “Active” throughout.

Source of the values: ChEMBL document CHEMBL4420075, “Seriniquinones, melanoma-specific anticancer agents” (2016).
